The values below come from US10246786B2, “Renewable bioelectronic interface for electrobiocatalytic reactor” (priority 2009, dated 2019).

In data set [1] the test system is Mannitol dehydrogenase from Thermotoga maritima (TmMtDH). As to the kind of experiment: Cyclic voltammetry of the Gly-TBO-PEI-NADH-TmMtDH-modified electrode with sugar substrates (calibration plot, saturation current, turnover). Particulars: substrate tested on Gly-TBO-PEI-NADH-TmMtDH-modified electrode; 100 mM PBS pH 6.0, 60° C. Format: biochemical. How it is done: Cyclic voltammetric experiments were conducted by sweeping the potential of the working electrode between 200 mV and −600 mV at a scan rate of 100 mV s^−1, causing fructose in the vicinity of the electrode to be reduced to mannitol in the […] direction and mannitol to be oxidized to fructose in the reverse direction. All electrochemical measurements were made in 100 mM PBS (pH 6.0) at 60° C. using an electrode with a controlled surface area of 0.07 cm^2. The slope of the calibration plot, which depicts peak current vs. concentration, is a measure of the biosensor's sensitivity. The maximum turnover rate (TRmax), which corresponds to the number of fructose molecules reduced per TmMtDH molecule per second, was calculated using Eq. 6 (Eisenwiener and Schulz, 1969):
[formula] where the background current (I0) and saturation current (Icat^sat) are given by the y-intercept of the calibration curve and the plateau current at a given concentration, respectively. Electrochemical Impedance Spectroscopy
The slope of the calibration curve (0.70±0.01 μA) mM^−1 cm^−2) is a measure of the biosensor's sensitivity. At higher concentrations, the anodic current reached a saturation value (Icat^sat=740.9±11.6 μA cm^−2). This value was used to calculate a TRmax, which represents the number of molecules of fructose reduction per TmMtDH molecule per second, of 57.5±2.8 s^−1, using Eq. 6 (Eisenwiener and Schulz, 1969).
The selectivity of the Gly-TBO-PEI-NADH-TmMtDH-modified electrode was examined by testing alternative substrates.

For data set [2] the following is noted: carboxylic acid group; cited from earlier work.

SMILES strings stand for the structures.

On to `O=C(CO)[C@@H](O)[C@H](O)[C@H](O)CO` [Fructose, D-fructose], for which, in data set [1], the “Icat^sat” value is 748.2 ± 11.7 μA cm^−2 and the Sensitivity was found to be 10.1 ± 0.2 μA mM^−1 cm^−2. Take `OC1COC(O)C(O)C1O` (centres unmarked) [Arbinose, arbinose]: in data set [1], the “Icat^sat” value was determined as 542.8 ± 9.1 μA cm^−2 and the Sensitivity is 0.3 ± 0.0 μA mM^−1 cm^−2.

By pKa is commonly meant the pH at which an ionisable group is half protonated. As for `O=C(O)CCS` [MPA], the pKa in data set [2] was approximately 4.3. For `O=C(CO)[C@H](O)[C@@H](O)[C@H](O)CO` [Sorbose, sorbose], in data set [1], the “Icat^sat” value was 562.4 ± 1.4 μA cm^−2 and the Sensitivity was found to be 0.4 ± 0.0 μA mM^−1 cm^−2. Consider `NCC(=O)O` [Gly, Glycine], for which the pKa in data set [2] is recorded as approximately 4.3.
